Holding throughout (experiment): Post emergence treatment, herbicidal activity on scale 0 to 100, synergism by Colby
What all share (assay type): in vivo
Settings in all cases: scale 0-100

Assay [1] relates to ECHCG (Echinochloa crus-galli). The method, then:
(§1) The presence of a synergistic effect in terms of percent control, between two mixing partners (X and Y) can be calculated using the Colby equation (Colby, S. R., 1967, Calculating Synergistic and Antagonistic Responses in Herbicide Combinations, Weeds, 15, 21-22):
(§2) The analysis of synergism or antagonism between the mixtures or compositions was determined using Colby's equation.
(§3) The culture containers used were plastic flowerpots containing loamy sand with approximately 3.0% of humus as the substrate. The seeds of the test plants were sown separately for each species and/or resistant biotype. […] The containers were irrigated gently to promote germination and growth and subsequently covered with transparent plastic hoods until the plants had rooted. This cover caused uniform germination of the test plants, unless this had been impaired by the active ingredients. […] For this purpose, the test plants were either sown directly and grown in the same containers, or they were first grown separately as seedlings and transplanted into the test containers a few days prior to treatment. Depending on the species, the plants were kept at 10-25° C. or 20-35° C., respectively. The test period extended to 20 days after treatment. During this time, the plants were tended, and their response to the individual treatments was evaluated. The evaluation was carried out by using a scale from 0 to 100. 100 means no emergence of the plants or complete destruction of at least the above-ground parts, and 0 means no damage, or normal course of growth. Data shown are the mean of two replications.

Another assay concerns CYPIR (Cyperus iria). The method, then: as §1, §2, §3
Another assay relates to KCHSC (Kochia scoparia). The method, then:
as §1, §2, §3

The next assay deals with SETVI (Setaria viridis). The method, then: as §1, §2, §3
The next assay deals with AVEFA (Avena fatua). How it is done:
as §1, §2, §3

Assay [2] has as its system ERICA (Erigeron Canadensis, Conyza canadensis). How it is done:
as §1, §2, §3

The test system of assay [3] is CHEAL (Chenopodium album). How it is done: as §1, §2, §3
The test system of assay [4] is ABUTH (Abutilon theophrasti). The method, then: as §1, §2, §3
The mark [5] stands for this setting: 2,4-D as dimethylammonium salt 70 g ai/ha.
[6] abbreviates: 2,4-D as dimethylammonium salt 140 g ai/ha.

Consider `C#CCN1C(=O)C(F)(F)Oc2cc(F)c(-n3c(=O)n(C)c(=S)n(C)c3=O)cc21` [Trifludimoxazin, trifludimoxazin], for which, in assay [1] (Trifludimoxazin 0.25 g ai/ha), the “Herbicidal activity against ECHCG, Found” value stood at 10.

Take `CCOC(=O)COc1ncccc1Oc1cc(-n2c(=O)cc(C(F)(F)F)n(C)c2=O)c(F)cc1Cl` [Compound II-83, ethyl [3-[2-chloro-4-fluoro-5-(1-methyl-6-trifluoromethyl-2,4-dioxo-1,2,3,4-tetrahydropyrimidin-3-yl)phenoxy]-2-pyridyloxy]acetate]: in the assay on CYPIR (Cyperus iria) (Compound II-83 0.25 g ai/ha), the “Herbicidal activity against CYPIR, Found” value turned out to be 0.

On to `CC(C)N(C)S(=O)(=O)NC(=O)c1cc(-n2c(=O)cc(C(F)(F)F)n(C)c2=O)c(F)cc1Cl` [Saflufenacil, saflufenacil], for which the “Herbicidal activity against ECHCG, Found” value in assay [1] (Saflufenacil 0.5 g ai/ha) was determined as 0.

With `COC[C@H](C)N(C(=O)CCl)c1c(C)csc1C` [Dimethenamid-P, dimethenamid-P], the “Herbicidal activity against KCHSC, Found” value was determined as 0 in the assay with KCHSC (Kochia scoparia) (Dimethenamid-P 500 g ai/ha) and 70 in the assay on KCHSC (Kochia scoparia) (Dimethenamid-P 1000 g ai/ha).

`CNC.O=C(O)COc1ccc(Cl)cc1Cl` [2,4-D as dimethylammonium salt, 2,4-D dimethylammonium salt]: the “Herbicidal activity against SETVI, Found” value with SETVI (Setaria viridis) (setting [5]) and in the assay with SETVI (Setaria viridis) (setting [6]) was 0 throughout. The “Herbicidal activity against AVEFA, Found” value in the assay on AVEFA (Avena fatua) (setting [5]) and with AVEFA (Avena fatua) (setting [6]) was 0 in each case.

On to `Cc1nn(-c2cc(NS(C)(=O)=O)c(Cl)cc2Cl)c(=O)n1C(F)F` [Sulfentrazone, sulfentrazone], for which the “Herbicidal activity against ERICA, Found” value in assay [2] (Sulfentrazone 1.25 g ai/ha) and in assay [2] (Sulfentrazone 2.5 g ai/ha) was 0 throughout.

Take `CS(=O)(=O)c1ccc(C(=O)C2C(=O)CCCC2=O)c(Cl)c1COCC(F)(F)F` [Tembotrione, tembotrione]: in assay [1] (Tembotrione 0.5 g ai/ha), the “Herbicidal activity against ECHCG, Found” value is recorded as 0.

As for `CP(=O)(O)CC[C@H](N)C(=O)O` [L-Glufosinate, (2S)-2-amino-4-[hydroxy(methyl)phosphinoyl]butyric acid], the “Herbicidal activity against CHEAL, Found” value in assay [3] (L-Glufosinate 100 g ai/ha) stood at 0. Besides, the “Herbicidal activity against SETVI, Found” value in the assay on SETVI (Setaria viridis) (Example 8, L-Glufosinate 100 g ai/ha) worked out at 30; in the assay with SETVI (Setaria viridis) (Example 9, L-Glufosinate 100 g ai/ha) it was 30; in the assay with SETVI (Setaria viridis) (L-Glufosinate 75 g ai/ha), 0; with SETVI (Setaria viridis) (L-Glufosinate 150 g ai/ha), 70. For the same molecule, the “Herbicidal activity against ERICA, Found” value in assay [2] (L-Glufosinate 75 g ai/ha) is 90. Also, the “Herbicidal activity against KCHSC, Found” value in the assay with KCHSC (Kochia scoparia) (L-Glufosinate 200 g ai/ha) is reported as 90. In the assay on CYPIR (Cyperus iria) (L-Glufosinate 200 g ai/ha), the “Herbicidal activity against CYPIR, Found” value was found to be 0. In addition, the “Herbicidal activity against AVEFA, Found” value in the assay with AVEFA (Avena fatua) (L-Glufosinate 100 g ai/ha) came to 35; with AVEFA (Avena fatua) (L-Glufosinate 300 g ai/ha), 20. Also, the “Herbicidal activity against ECHCG, Found” value turned out to be 0 in assay [1] (Example 4, L-Glufosinate 200 g ai/ha); 65 in assay [1] (Example 4, L-Glufosinate 400 g ai/ha); 0 in assay [1] (Example 6, L-Glufosinate 200 g ai/ha); 65 in assay [1] (Example 6, L-Glufosinate 400 g ai/ha); 0 in assay [1] (Example 12, L-Glufosinate 100 g ai/ha); 0 in assay [1] (Example 12, L-Glufosinate 200 g ai/ha). The “Herbicidal activity against ECHCG, Found” value in assay [1] (Example 13, L-Glufosinate 100 g ai/ha) worked out at 0; in assay [1] (Example 13, L-Glufosinate 200 g ai/ha) it was 0; in assay [1] (Example 14, L-Glufosinate 100 g ai/ha), 0; in assay [1] (Example 14, L-Glufosinate 200 g ai/ha), 0. In addition, in assay [4] (L-Glufosinate 75 g ai/ha), the “Herbicidal activity against ABUTH, Found” value was 0.

Regarding `CN(C)C(=O)Nc1ccc(Cl)c(Cl)c1` [Diuron, diuron], the entries for the “Herbicidal activity against AVEFA, Found” value in the assay on AVEFA (Avena fatua) (Diuron 125 g ai/ha) and in the assay with AVEFA (Avena fatua) (Diuron 250 g ai/ha) were 20 and 30, respectively.

For the molecule `Cc1c(C(=O)c2cnn(C)c2O)ccc(S(C)(=O)=O)c1C1=NOCC1` [Topramezone, topramezone], in assay [1] (Topramezone 1 g ai/ha), the “Herbicidal activity against ECHCG, Found” value is 0.

`CNC.COc1c(Cl)ccc(Cl)c1C(=O)O` [Dicamba as dimethylammonium salt, Dicamba dimethylammonium salt]: the “Herbicidal activity against SETVI, Found” value in the assay on SETVI (Setaria viridis) (Dicamba as dimethylammonium salt 35 g ai/ha) is 0; with SETVI (Setaria viridis) (Dicamba as dimethylammonium salt 70 g ai/ha) it was 0; in the assay on SETVI (Setaria viridis) (Dicamba as dimethylammonium salt 140 g ai/ha), 30.

bicyclopyrone: the “Herbicidal activity against ECHCG, Found” value in assay [1] (Bicyclopyrone 2 g ai/ha) was 0.

On to `CN(C)C(=O)Nc1cccc(C(F)(F)F)c1` [Fluometuron, fluometuron], for which the “Herbicidal activity against ABUTH, Found” value in assay [4] (Fluometuron 125 g ai/ha) is 0; in assay [4] (Fluometuron 250 g ai/ha) it was 20.

`CCc1cccc(C)c1N(C(=O)CCl)[C@@H](C)COC` [S-Metolachlor, S-metolachlor]: the “Herbicidal activity against CHEAL, Found” value in assay [3] (S-Metolachlor 500 g ai/ha) stood at 20; in assay [3] (S-Metolachlor 1000 g ai/ha) it was 75.

Regarding `O=C(Nc1ccccc1)Nc1cnns1` [Thidiazuron], the “Herbicidal activity against SETVI, Found” value in the assay with SETVI (Setaria viridis) (Thidiazuron 50 g ai/ha) was determined as 0.

The values are drawn from US12137690B2, “Herbicidal mixtures comprising L-glufosinate and their use in cotton cultures” (BASF SE, priority 2017, dated 2024).
